Literature values, collected in patent US6436889B1, “Detergent compositions” (Unilever Home & Personal Care USA division of Conopco, Inc., priority 1999, dated 2002).
Where two headings read alike, the source gives them in different places.

[1] = at 20° C., other common materials

O=BO[O-].[Na+] [Sodium perborate anhydrous]
Water Solubility [1]: 3.7 g/100 g

O=P(O)(O)OP(=O)(O)OP(=O)(O)O [Sodium tripolyphosphate anhydrous]
Water Solubility [1]: 15 g/100 g

NC(N)=O [Urea]
Water Solubility (grams of solid required to form a saturated solution in 100 grams of water at 20° C., highly water-soluble materials): >100 g/100 g
